# Laboratory results as given in ChEMBL document CHEMBL3751764, “Synthesis and in vitro antiproliferative activity of novel pyrazolo[3,4-d]pyrimidine derivatives” (Medchemcomm, 2015).
# The source made the active and inactive calls. The rule behind the calls is not given here.
# Columns and labels:
# [1] = target: Platelet-derived growth factor receptor (Homo sapiens) (UniProt P09619+P16234); test: Inhibition of PDGFR (unknown origin) at 10 uM after 20 to 40 mins by liquid scintillation counting analysis in presence of […]; type: protein-complex assay
# [2] = Cytotoxicity against human HOP92 cells after 72 hrs by SRB assay; type: functional; details: HOP-92, 72 h
# 786-0 = test: Cytotoxicity against human 786-0 cells after 72 hrs by SRB assay; type: functional; details: 786-0, 72 h
# [3] = Cytotoxicity against human HCT116 cells after 72 hrs by SRB assay; type: functional; details: HCT-116, 72 h
# [4] = Cytotoxicity against human SNB19 cells after 72 hrs by SRB assay; type: functional; details: SNB-19, 72 h
# NCI-H226 = test: Cytotoxicity against human NCI-H226 cells after 72 hrs by SRB assay; type: functional; details: NCI-H226, 72 h
# [5] = Cytotoxicity against human PC3 cells after 72 hrs by SRB assay; type: functional; details: PC-3, 72 h
# MDA-MB-435 = test: Cytotoxicity against human MDA-MB-435 cells after 72 hrs by SRB assay; type: functional; details: MDA-MB-435, 72 h
# [6] = Cytotoxicity against human OVCAR8 cells after 72 hrs by SRB assay; type: functional; details: OVCAR-8, 72 h
# [7] = Cytotoxicity against human RPMI8226 cells after 72 hrs by SRB assay; type: functional; details: RPMI-8226, 72 h
# [8] = Cytotoxicity against human NCI-ADR-RES cells after 72 hrs by SRB assay; type: functional
# [9] = Cytotoxicity against human SF295 cells after 72 hrs by SRB assay; type: functional; details: SF-295, 72 h
# SK-MEL-5 = test: Cytotoxicity against human SK-MEL-5 cells after 72 hrs by SRB assay; type: functional; details: SK-MEL-5, 72 h
# SK-MEL-28 = test: Cytotoxicity against human SK-MEL-28 cells after 72 hrs by SRB assay; type: functional; details: SK-MEL-28, 72 h
# [10] = Cytotoxicity against human Caki1 cells after 72 hrs by SRB assay; type: functional; details: CAKI-1, 72 h
# [11] = Cytotoxicity against human IGROV1 cells after 72 hrs by SRB assay; type: functional; details: IGROV-1, 72 h
# [12] = Cytotoxicity against human SW620 cells after 72 hrs by SRB assay; type: functional; details: SW-620, 72 h
# [13] = Cytotoxicity against human BT549 cells after 72 hrs by SRB assay; type: functional; details: BT-549, 72 h
# [14] = Cytotoxicity against human HCT15 cells after 72 hrs by SRB assay; type: functional; details: HCT-15, 72 h
# [15] = Cytotoxicity against human RXF393 cells after 72 hrs by SRB assay; type: functional; details: RXF 393, 72 h
# A549 [16] = test: Cell cycle arrest in human A549 cells assessed as accumulation at G0/G1 phase at IC50 after 48 hrs by FACS flow cytometric analysis relative to control; type: functional
# [17] = Cytotoxicity against human SKOV3 cells after 72 hrs by SRB assay; type: functional; details: SK-OV-3, 72 h
# [18] = Cytotoxicity against human LOXIMVI cells after 72 hrs by SRB assay; type: functional; details: LOX IMVI
# MDA-MB-231 = test: Cytotoxicity against human MDA-MB-231 cells after 72 hrs by SRB assay; type: functional; details: MDA-MB-231, 72 h
# [19] = Cytotoxicity against human UACC62 cells after 72 hrs by SRB assay; type: functional; details: UACC-62, 72 h
# M14 = test: Cytotoxicity against human M14 cells after 72 hrs by SRB assay; type: functional; details: M14, 72 h
# A549 [20] = test: Upregulation of p27kip1 expression in human A549 cells by Western blotting analysis; type: functional
# NCI-H522 = test: Cytotoxicity against human NCI-H522 cells after 72 hrs by SRB assay; type: functional; details: NCI-H522, 72 h
# SR = test: Cytotoxicity against human SR cells after 72 hrs by SRB assay; type: functional
# [21] = Cytotoxicity against human OVCAR3 cells after 72 hrs by SRB assay; type: functional; details: OVCAR-3, 72 h
# A549 [22] = test: Downregulation of cyclin D1 expression in human A549 cells by immunohistochemical analysis relative to control; type: functional
# MCF7 = test: Cytotoxicity against human MCF7 cells after 72 hrs by SRB assay; type: functional, cell-based; details: MCF7, 72 h
# CCRF-CEM = test: Cytotoxicity against human CCRF-CEM cells after 72 hrs by SRB assay; type: functional
# [23] = Cytotoxicity against human TK10 cells after 72 hrs by SRB assay; type: functional; details: TK-10, 72 h
# MDA-MB-468 = test: Cytotoxicity against human MDA-MB-468 cells after 72 hrs by SRB assay; type: functional; details: MDA-MB-468, 72 h
# [24] = read-out: LC50 (the source's name)
compound,measurement,setting,value
O=c1sc2cc(Nc3ncnc4c3cnn4-c3ccccc3)ccc2n1Cc1ccc(Cl)cc1,inhibition,[1],inactive
O=C(NC1CCCCC1)c1ccc(Nc2ncnc3c2cnn3-c2ccccc2)cc1,GI50,[2],2.53 µM
same,TGI,[2],8.29 µM
same,CC50,[2]; [24],86.6 µM
same,GI50,786-0,3.47 µM
same,TGI,786-0,18.3 µM
same,CC50,786-0; [24],65.5 µM
same,GI50,[3],4.01 µM
same,TGI,[3],> 100 µM
same,CC50,[3]; [24],> 100 µM
same,GI50,[4],3.82 µM
same,TGI,[4],18.9 µM
same,CC50,[4]; [24],> 100 µM
same,GI50,NCI-H226,3.35 µM
same,TGI,NCI-H226,21.5 µM
same,CC50,NCI-H226; [24],> 100 µM
same,GI50,[5],11.8 µM
same,TGI,[5],44.8 µM
same,CC50,[5]; [24],> 100 µM
same,GI50,MDA-MB-435,67.8 µM
same,TGI,MDA-MB-435,> 100 µM
same,CC50,MDA-MB-435; [24],> 100 µM
same,GI50,[6],3.87 µM
same,TGI,[6],19.3 µM
same,CC50,[6]; [24],> 100 µM
same,GI50,[7],> 100 µM
same,TGI,[7],> 100 µM
same,CC50,[7]; [24],> 100 µM
same,GI50,[8],7.06 µM
same,TGI,[8],> 100 µM
same,CC50,[8]; [24],> 100 µM
same,GI50,[9],2.98 µM
same,TGI,[9],13.3 µM
same,CC50,[9]; [24],43.1 µM
same,GI50,SK-MEL-5,21.7 µM
same,TGI,SK-MEL-5,> 100 µM
same,CC50,SK-MEL-5; [24],> 100 µM
same,GI50,SK-MEL-28,3.79 µM
same,TGI,SK-MEL-28,> 100 µM
same,CC50,SK-MEL-28; [24],> 100 µM
same,GI50,[10],14 µM
same,TGI,[10],> 100 µM
same,CC50,[10]; [24],> 100 µM
same,GI50,[11],14.4 µM
same,TGI,[11],65.9 µM
same,CC50,[11]; [24],> 100 µM
same,GI50,[12],> 100 µM
same,TGI,[12],> 100 µM
same,CC50,[12]; [24],> 100 µM
same,GI50,[13],5.69 µM
same,TGI,[13],26.4 µM
same,CC50,[13]; [24],91.9 µM
same,GI50,[14],99.3 µM
same,TGI,[14],> 100 µM
same,CC50,[14]; [24],> 100 µM
same,GI50,[15],2.43 µM
same,TGI,[15],9.33 µM
same,CC50,[15]; [24],56.9 µM
same,Activity,A549 [16],11.9%
same,GI50,[17],2.95 µM
same,TGI,[17],8.7 µM
same,CC50,[17]; [24],51.1 µM
same,GI50,[18],4.49 µM
same,TGI,[18],22.3 µM
same,CC50,[18]; [24],> 100 µM
same,GI50,MDA-MB-231,5.09 µM
same,TGI,MDA-MB-231,21.9 µM
same,CC50,MDA-MB-231; [24],80.6 µM
same,GI50,[19],17.4 µM
same,TGI,[19],> 100 µM
same,CC50,[19]; [24],> 100 µM
same,GI50,M14,18.3 µM
same,TGI,M14,> 100 µM
same,CC50,M14; [24],> 100 µM
same,fold change (FC),A549 [20],3
same,GI50,NCI-H522,6.4 µM
same,TGI,NCI-H522,> 100 µM
same,CC50,NCI-H522; [24],> 100 µM
same,GI50,SR,11.6 µM
same,TGI,SR,49.1 µM
same,CC50,SR; [24],> 100 µM
same,GI50,[21],14.3 µM
same,TGI,[21],> 100 µM
same,CC50,[21]; [24],> 100 µM
same,Activity,A549 [22],51%
same,GI50,MCF7,74.1 µM
same,LC50,MCF7,> 100 µM
same,TGI,MCF7,> 100 µM
same,GI50,CCRF-CEM,> 100 µM
same,TGI,CCRF-CEM,> 100 µM
same,CC50,CCRF-CEM; [24],> 100 µM
same,GI50,[23],16.5 µM
same,TGI,[23],49.5 µM
same,CC50,[23]; [24],> 100 µM
same,GI50,MDA-MB-468,21.7 µM
same,TGI,MDA-MB-468,> 100 µM
same,CC50,MDA-MB-468; [24],> 100 µM
